Laboratory results reported in patent US20230203003A1, “Notch Inhibitors and Uses Thereof” (StemSynergy Therapeutics, Inc., priority 2020, published 2023).
Structures can show the parent of a compound that is named as a salt. Where two headings read alike, the source gives them in different places.

Assays:
hNotch1ICD = biological target: T1, hNotch1ICD (Homo sapiens, UniProt P46531); experiment: Notch1 Reporter Assay (Dox-inducible Notch1-ICD, CSL-responsive luciferase in 293A cells); format: cell-based; settings: read-out: Notch1 Reporter Assay IC50
T1 construct: pLV[Tet]-Puro-TRE3G>Notch1-ICD; expressed in transfected cells; host or cells: 293A cells
Protocol: 293A cells expressing 1) pCMV-Tet-On 3G, 2) pLV[Tet]-Puro-TRE3G>Notch1-ICD, 3) pLV[Tet]-Puro-TRE3G>Notch2-ICD, 4) pLV[Tet]-Puro-TRE3G>Notch3-ICD, and 5) pCSL-RElement-Luc were used. When Doxycycline is added, the Tet-ON gene activates expression of hNotch1ICD, which together with endogenous NTC components binds to CSL responsive elements (pCSL-RElement-Luc) and expresses luciferase. 1 ×× 10^4 cells are plated in 100 µL (96-well format). 24 h later, compounds (10 mM stock in DMSO) are diluted in DMSO to 200X, then added (5 ul into 1 mL) to cell culture media containing 50 ng/mL Dox. This is then added 1:1 to cells. Final DMSO = 0.25%, Dox = 25 ng/mL. After 24 h, media is discarded, and cells are lysed in passive lysis buffer (Promega). Cells are rocked at room temperature for 15 min and then lysate is divided for luciferase assay (Luciferase Assay System, Promega) and cell viability (CellTiter Glo 2.0, Promega). Raw luciferase is normalized to cell viability, and then scaled to DMSO wells. Results are analyzed and IC50′s are determined in GraphPad by nonlinear regression curve fitting (4 parameter) of dose response curves.

[1] = system: OE33 Esophageal Adenocarcinoma cell line; experiment: OE33 Colony Formation Assay; format: cell-based; settings: OE33 cells, 200 cells/well, 7 days, CellTiter-Glo
Protocol: OE33 Colony Formation Assay
The OE33 Esophageal Adenocarcinoma cell line was cultured and plated into 96-well tissue culture plates under sparse conditions (200 cells/well). Test compounds were serially diluted in DMSO and then into culture media (final DMSO concentration = 0.1%). Compound/media was then added to cells every 48 hours for a total of 7 days. Clonogenic growth was assessed using the CellTiter-Glo reagent, according to manufacturer (Promega) specifications. Percent inhibition was calculated as the percent of luminescence normalized to control (0.1% DMSO) wells. Nonlinear regression curve fitting was performed using GraphPad Prism software to determine EC50′s.

[2] = 293A cells, 24 h, luciferase normalized to cell viability
[3] = value printed in the synthesis heading of the compound

T1 sequence (P46531 1754-2555 limits assumed): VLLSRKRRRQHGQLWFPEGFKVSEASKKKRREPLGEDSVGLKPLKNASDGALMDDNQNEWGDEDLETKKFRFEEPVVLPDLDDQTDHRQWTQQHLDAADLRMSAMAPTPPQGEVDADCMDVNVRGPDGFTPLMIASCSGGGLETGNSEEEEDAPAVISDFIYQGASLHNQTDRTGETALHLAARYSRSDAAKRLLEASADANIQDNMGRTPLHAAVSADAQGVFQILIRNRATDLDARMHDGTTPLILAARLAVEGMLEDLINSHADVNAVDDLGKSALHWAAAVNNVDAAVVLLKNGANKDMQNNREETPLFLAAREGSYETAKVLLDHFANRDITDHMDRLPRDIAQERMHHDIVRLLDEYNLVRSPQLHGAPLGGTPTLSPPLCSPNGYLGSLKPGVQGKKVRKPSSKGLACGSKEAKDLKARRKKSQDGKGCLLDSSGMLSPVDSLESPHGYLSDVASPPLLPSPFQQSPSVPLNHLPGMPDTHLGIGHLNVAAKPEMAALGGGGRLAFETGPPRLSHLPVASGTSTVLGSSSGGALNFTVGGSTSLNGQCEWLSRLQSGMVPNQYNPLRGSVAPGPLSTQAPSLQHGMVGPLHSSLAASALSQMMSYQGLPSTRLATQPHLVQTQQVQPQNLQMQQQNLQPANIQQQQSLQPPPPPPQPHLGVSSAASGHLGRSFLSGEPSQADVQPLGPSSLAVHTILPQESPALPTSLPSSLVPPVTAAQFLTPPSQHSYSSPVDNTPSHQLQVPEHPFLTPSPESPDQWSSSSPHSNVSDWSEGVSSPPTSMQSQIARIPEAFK

Compound | IC50 (hNotch1ICD; [2]) [µM] | further results
CC(C)Cn1c(=O)c(C(=O)Nc2ccc(F)c(N3CCN(C)CC3)c2)c(O)c2ccccc21 [584(02)] | 6 | EC50 ([1]; Homo sapiens, OE33, 168 h): 2 µM
CC(C)Cn1c(=O)c(C(=O)Nc2ccon2)c(O)c2ccccc21 [compound 525, 4-hydroxy-1-isobutyl-N-(isoxazol-3-yl)-2-oxo-1,2-dihydroquinoline-3-carboxamide] | 13.8 | EC50 ([1]; Homo sapiens, OE33, 168 h): 7.4 µM
Cc1cccnc1NC(=O)c1c(O)c2ccccc2n(Cc2ccccc2)c1=O [SSTN-452] | – | EC50 ([1]; listed as 452): 1.6 µM
CC(C)Cn1c(=O)c(C(=O)Nc2ccc(F)cc2N2CCN(C)CC2)c(O)c2ccccc21 [570(02)] | 5.6 | EC50 ([1]; Homo sapiens, OE33, 168 h): 2 µM
CC(C)Cn1c(=O)c(C(=O)Nc2cccc(F)c2)c(O)c2c(N3CCNCC3)cccc21 [SSTN-587_HCl salt, N-(3-fluorophenyl)-4-hydroxy-1-isobutyl-2-oxo-5-(piperazin-1-yl)-1,2-dihydroquinoline-3-carboxamide hydrochloride salt] | 3.8 | IC50 (hNotch1ICD; [3]): 3.76 µM; EC50 ([1]; Homo sapiens, OE33, 168 h): 1.7 µM
CC(C)Cn1c(=O)c(C(=O)Nc2cccc(N(C)C3CC3)c2)c(O)c2ccccc21 [compound 561, N-(3-(cyclopropyl(methyl)amino)phenyl)-4-hydroxy-1-isobutyl-2-oxo-1,2-dihydroquinoline-3-carboxamide] | 19.1 | EC50 ([1]; Homo sapiens, OE33, 168 h): 3.9 µM
CC(C)Cn1c(=O)c(C(=O)Nc2cc(F)ccn2)c(O)c2ccccc21 [compound 522, N-(4-fluoropyridin-2-yl)-4-hydroxy-1-isobutyl-2-oxo-1,2-dihydroquinoline-3-carboxamide] | 17.2 | EC50 ([1]; Homo sapiens, OE33, 168 h): 6 µM
CC(C)Cn1c(=O)c(C(=O)Nc2cc(F)c(N3CCN(C)CC3)c(F)c2)c(O)c2ccccc21 [582(02)] | 1.9 | EC50 ([1]; Homo sapiens, OE33, 168 h): 1.1 µM
CC(C)Cn1c(=O)c(C(=O)Nc2cnn(C)c2)c(O)c2ccccc21 [compound 534, 4-hydroxy-1-isobutyl-N-(1-methyl-1H-pyrazol-4-yl)-2-oxo-1,2-dihydroquinoline-3-carboxamide] | 11.3 | EC50 ([1]; Homo sapiens, OE33, 168 h): 2.5 µM
CC(C)Cn1c(=O)c(C(=O)Nc2ccc(N3CCN(C)CC3)c(F)c2)c(O)c2ccccc21 [572(02)] | – | EC50 ([1]; Homo sapiens, OE33, 168 h): 2.2 µM
O=C(Nc1ncccc1O)c1c(O)c2c([nH]c1=O)CCCC2 [SSTN-402] | 12.1 | –
CC(C)Cn1c(=O)c(C(=O)Nc2ccc(F)cc2)c(O)c2ccccc21 [compound 539, N-(4-fluorophenyl)-4-hydroxy-1-isobutyl-2-oxo-1,2-dihydroquinoline-3-carboxamide] | 6.6 | –
CC(C)Cn1c(=O)c(C(=O)Nc2cccc(F)c2)c(O)c2c(N3CCN(C)CC3)cccc21 [588(01)] | 10.3 | –
CC(C)Cn1c(=O)c(C(=O)Nc2cccc(F)c2)c(O)c2ccccc21 [compound 538, N-(3-fluorophenyl)-4-hydroxy-1-isobutyl-2-oxo-1,2-dihydroquinoline-3-carboxamide] | 9.6 | EC50 ([1]; Homo sapiens, OE33, 168 h): 1.7 µM
CC(C)Cn1c(=O)c(C(=O)Nc2ccccn2)c(O)c2ccccc21 [compound 518, 4-hydroxy-1-isobutyl-2-oxo-N-(pyridin-2-yl)-1,2-dihydroquinoline-3-carboxamide] | 18.7 | –
CC(C)Cn1c(=O)c(C(=O)Nc2ccn(C)n2)c(O)c2ccccc21 [compound 533, 4-hydroxy-1-isobutyl-N-(1-methyl-1H-pyrazol-3-yl)-2-oxo-1,2-dihydroquinoline-3-carboxamide] | 22.5 | –
Cc1cccnc1NC(=O)c1c(O)c2ccc(N3CCN(C)CC3)cc2n(CC(C)C)c1=O [SSTN-580_HCl salt, 4-hydroxy-1-isobutyl-7-(4-methylpiperazin-1-yl)-N-(3-methylpyridin-2-yl)-2-oxo-1,2-dihydroquinoline-3-carboxamide hydrochloride salt] | – | IC50 (hNotch1ICD; [3]): 14 µM
CC(C)Cn1c(=O)c(C(=O)Nc2cccc(N(C)CC3CC3)c2)c(O)c2ccccc21 [compound 562, N-(3-((cyclopropylmethyl)(methyl)amino)phenyl)-4-hydroxy-1-isobutyl-2-oxo-1,2-dihydroquinoline-3-carboxamide] | 15 | EC50 ([1]; Homo sapiens, OE33, 168 h): 7.7 µM
CC(C)Cn1c(=O)c(C(=O)Nc2ccc(F)cc2N2CCN(C)CC2)c(O)c2ccccc21 [SSTN-570, N-(4-fluoro-2-(4-methylpiperazin-1-yl)phenyl)-4-hydroxy-1-isobutyl-2-oxo-1,2-dihydroquinoline-3-carboxamide] | – | IC50 (hNotch1ICD; [3]): 6.5 µM

Compound | IC50 (hNotch1ICD; [2]) [µM] | further results
CC(C)Cn1c(=O)c(C(=O)Nc2cccc(F)c2N2CCN(C)CC2)c(O)c2ccccc21 [581(01)] | 7.8 | –
Cc1ccncc1NC(=O)c1c(O)c2ccccc2n(CC(C)C)c1=O [compound 550, 4-hydroxy-1-isobutyl-N-(4-methylpyridin-3-yl)-2-oxo-1,2-dihydroquinoline-3-carboxamide] | 20.8 | –
Cc1cccnc1NC(=O)c1c(O)c2cc(N3CCN(C)CC3)ccc2n(CC(C)C)c1=O [579(01)] | 18.4 | –
CC(C)Cn1c(=O)c(C(=O)Nc2cccc(F)c2N2CCN(C)CC2)c(O)c2ccccc21 [SSTN-581_HCl salt, N-(3-fluoro-2-(4-methylpiperazin-1-yl)phenyl)-4-hydroxy-1-isobutyl-2-oxo-1,2-dihydroquinoline-3-carboxamide hydrochloride salt] | – | IC50 (hNotch1ICD; [3]): 7.68 µM
CC(C)Cn1c(=O)c(C(=O)Nc2cccc(F)c2)c(O)c2c(N3CCN(C)CC3)cccc21 [SSTN-588_HCl salt, N-(3-fluorophenyl)-4-hydroxy-1-isobutyl-5-(4-methylpiperazin-1-yl)-2-oxo-1,2-dihydroquinoline-3-carboxamide hydrochloride salt] | – | IC50 (hNotch1ICD; [3]): 9.8 µM
CC(C)Cn1c(=O)c(C(=O)Nc2cc(F)cc(N3CCN(C)CC3)c2)c(O)c2ccccc21 [583(02)] | 6.3 | –
Cc1cccnc1NC(=O)c1c(O)c2ccccc2n(Cc2ccccc2)c1=O [SSTN-408] | – | EC50 ([1]; listed as 408): 3.7 µM
CC(C)Cn1c(=O)c(C(=O)Nc2ccccc2N2CCN(C)CC2)c(O)c2ccccc21 [SSTN-568_HCl salt, 4-hydroxy-1-isobutyl-N-(2-(4-methylpiperazin-1-yl)phenyl)-2-oxo-1,2-dihydroquinoline-3-carboxamide hydrochloride salt] | – | IC50 (hNotch1ICD; [3]): 6.83 µM
Cc1cccnc1NC(=O)c1c(O)c2ccc(N3CCN(C)CC3)cc2n(CC(C)C)c1=O [580(02)] | 14 | –
CC(C)Cn1c(=O)c(C(=O)Nc2ccc(F)cc2N2CCN(C)CC2)c(O)c2ccccc21 [570(01)] | 6.5 | –
CC(C)Cn1c(=O)c(C(=O)Nc2cccc(F)c2)c(O)c2c(N3CCN(C)CC3)cccc21 [588(02)] | 9.8 | –
CC(C)Cn1c(=O)c(C(=O)Nc2cccc(F)c2)c(O)c2ccc(Br)cc21 [SSTN-567, 7-bromo-N-(3-fluorophenyl)-4-hydroxy-1-isobutyl-2-oxo-1,2-dihydroquinoline-3-carboxamide] | 33.2 | –
CC(C)Cn1c(=O)c(C(=O)Nc2ncccc2O)c(O)c2ccccc21 [compound 519, 4-hydroxy-N-(3-hydroxypyridin-2-yl)-1-isobutyl-2-oxo-1,2-dihydroquinoline-3-carboxamide] | 17.8 | –
CC(C)Cn1c(=O)c(C(=O)Nc2cccc(F)c2)c(O)c2c(N3CCN(C)CC3)cccc21 [SSTN-588, N-(3-fluorophenyl)-4-hydroxy-1-isobutyl-5-(4-methylpiperazin-1-yl)-2-oxo-1,2-dihydroquinoline-3-carboxamide] | – | IC50 (hNotch1ICD; [3]): 10.3 µM
CC(C)Cn1c(=O)c(C(=O)Nc2ccc(N3CCN(C)CC3)c(F)c2)c(O)c2ccccc21 [SSTN-572, N-(3-fluoro-4-(4-methylpiperazin-1-yl)phenyl)-4-hydroxy-1-isobutyl-2-oxo-1,2-dihydroquinoline-3-carboxamide] | – | IC50 (hNotch1ICD; [3]): 17.7 µM
CC(C)Cn1c(=O)c(C(=O)Nc2cc(F)ccc2N2CCN(C)CC2)c(O)c2ccccc21 [SSTN-571_HCl salt, N-(5-fluoro-2-(4-methylpiperazin-1-yl)phenyl)-4-hydroxy-1-isobutyl-2-oxo-1,2-dihydroquinoline-3-carboxamide hydrochloride salt] | – | IC50 (hNotch1ICD; [3]): 7.87 µM
CC(C)Cn1c(=O)c(C(=O)Nc2ccc(N3CCN(C)CC3)cc2)c(O)c2ccccc21 [SSTN-569_HCl salt, 4-hydroxy-1-isobutyl-N-(4-(4-methylpiperazin-1-yl)phenyl)-2-oxo-1,2-dihydroquinoline-3-carboxamide hydrochloride salt] | – | IC50 (hNotch1ICD; [3]): 4.93 µM
CC(C)Cn1c(=O)c(C(=O)Nc2ccccc2N2CCN(C)CC2)c(O)c2ccccc21 [SSTN-568, 4-hydroxy-1-isobutyl-N-(2-(4-methylpiperazin-1-yl)phenyl)-2-oxo-1,2-dihydroquinoline-3-carboxamide] | – | IC50 (hNotch1ICD; [3]): 21.5 µM
